Test results from the supplement of paper PMC11208160.

test: recombinant barcode read abundance after kanamycin selection (control-corrected) (log10(CPM+1)); higher = more efficient recombination; sequences stand for … in AGTGCAGAGAAAATCGGCCAGTTTTCTCTGCCTGCAGTCCGCATGCCGT…AGATTTATGCAGCGGACTGCCTTTCTCCCAAAGTGATAAACCGGACAGTATCATGGACCGGTTTTCCCGGTAATCCGTATTTGCAAGGTTGGTTTCACT; site = the 11-nt target
Procedure: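 Pooled E. coli target-specificity screen for the IS621 bridge recombinase. Each library plasmid pairs an 11-nt target (CT core) with a bridge RNA whose target-binding loop (9-nt LTG + 4-nt RTG) is reprogrammed; the rest of the 177-nt WT IS621 bridge RNA scaffold is fixed. The plasmid is co-electroporated with a WT donor plasmid; recombinase is induced with 0.1 mM IPTG and recombinants are selected on kanamycin. Recombinant barcodes are sequenced, converted to CPM, averaged over two biological replicates and corrected by the unselected control CPM. Molecule = full bridge RNA written as DNA: LTG = specificity nt 1-9, RTG = reverse complement of specificity nt 8-11, in the WT scaffold.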
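Also: IS621 recombinase and bridge RNA in Escherichia coli cells.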

“ACTTTGCCTTGGGTTCTAACCTGTTGCCT (site ACCTTGCCTAG)” and “ACTTTGCCTTGGGTTCTAACCTGTTGCCT (site ACGTTGCCTAG)” are within 0.2 log units of each other in “recombinant barcode read abundance (log10)” value: 0.0879 for the first, 0.0319 for the second.

Going from “ACTTTGCCTTGGGTTCTAACCTGTTGCCT (site ACTTTGCCTAG)” to “AGAAAGTCTTGGGTTCTAACCTGTTGCGT (site AGAAAGTCTAC)”, the “recombinant barcode read abundance (log10)” value rises from 0.953 to 2.36.

Going from “AGAAAGTCTTGGGTTCTAACCTGTTGCGT (site AGAGAGTCTAG)” to “AGAAATACTTGGGTTCTAACCTGTTGCCG (site AGAAATACTCG)”, the “recombinant barcode read abundance (log10)” value rises from 0.363 to 1.07.

First: AGAAATACTTGGGTTCTAACCTGTTGCCG (site GTCCTACCTTA)
Second: AGAACAACTTGGGTTCTAACCTGTTGCCT (site AGAACAACTAG)
The “recombinant barcode read abundance (log10)” value of the first is lower: 0.0574 for the first, 0.388 for the second.

First: AGAACAACTTGGGTTCTAACCTGTTGCCT (site AGCACAACTAG)
Second: AGAACAACTTGGGTTCTAACCTGTTGCCT (site AGGACAACTAG)
The “recombinant barcode read abundance (log10)” value of the first is lower: 0.035 for the first, 0.456 for the second.

“AGAACAACTTGGGTTCTAACCTGTTGCCT (site AGTACAACTAG)” and “AGAACTACTTGGGTTCTAACCTGTTGCCA (site AGAACTACTTG)” are within 0.2 log units of each other in “recombinant barcode read abundance (log10)” value: 0.102 for the first, 0.0417 for the second.

First: AGAACTACTTGGGTTCTAACCTGTTGCCA (site CTCGTGTCTAT)
Second: AGAAGTACTTGGGTTCTAACCTGTTGCGG (site AGAAGTACTCC)
The “recombinant barcode read abundance (log10)” value of the first is lower: 0.0514 for the first, 1.86 for the second.

First: AGAAGTACTTGGGTTCTAACCTGTTGCGG (site GTAAGTACTCC)
Second: AGAATATCTTGGGTTCTAACCTGTTGCCT (site AGAATATCTAG)
The “recombinant barcode read abundance (log10)” value of the first is lower: 0.0235 for the first, 0.834 for the second.

First: AGAATATCTTGGGTTCTAACCTGTTGCCT (site AGATTATCTAG)
Second: AGACATCCTTGGGTTCTAACCTGTTGCTT (site AGACATCCTAA)
The “recombinant barcode read abundance (log10)” value of the first is lower: 0.193 for the first, 0.948 for the second.

“AGACATCCTTGGGTTCTAACCTGTTGCTT (site AGACCTCCTAA)” and “AGACATCCTTGGGTTCTAACCTGTTGCTT (site AGACGTCCTAA)” are within 0.2 log units of each other in “recombinant barcode read abundance (log10)” value: 0.0971 for the first, 0.0527 for the second.

“AGACATCCTTGGGTTCTAACCTGTTGCTT (site AGACTTCCTAA)” and “AGACCACCTTGGGTTCTAACCTGTTGCCT (site AAACCACCTAG)” are within 0.2 log units of each other in “recombinant barcode read abundance (log10)” value: 0.195 for the first, 0.383 for the second.

First: AGACCACCTTGGGTTCTAACCTGTTGCCT (site ACACCACCTAG)
Second: AGACCACCTTGGGTTCTAACCTGTTGCCT (site AGACCACCTAG)
The “recombinant barcode read abundance (log10)” value of the first is lower: 0.234 for the first, 1.82 for the second.

First: AGACCACCTTGGGTTCTAACCTGTTGCCT (site ATACCACCTAG)
Second: AGACGGACTTGGGTTCTAACCTGTTGCCA (site AGACGGACTTG)
The “recombinant barcode read abundance (log10)” value of the first is lower: 0.847 for the first, 1.68 for the second.

Going from “AGACGGACTTGGGTTCTAACCTGTTGCCA (site CTTGCTCCTAT)” to “AGACTAGCTTGGGTTCTAACCTGTTGCGT (site AGACTAGCTAC)”, the “recombinant barcode read abundance (log10)” value rises from 0.145 to 2.51.

Compared with “AGACTAGCTTGGGTTCTAACCTGTTGCGT (site TTACTAGCTAC)”, “AGACTCCCTTGGGTTCTAACCTGTTGCCT (site AGACTCCCTAG)” is higher in “recombinant barcode read abundance (log10)” value: 0.255 for the first, 1.22 for the second.

“AGACTCCCTTGGGTTCTAACCTGTTGCCT (site AGCCTCCCTAG)” and “AGACTCCCTTGGGTTCTAACCTGTTGCCT (site AGGCTCCCTAG)” are within 0.2 log units of each other in “recombinant barcode read abundance (log10)” value: 0.223 for the first, 0.0602 for the second.

Going from “AGACTCCCTTGGGTTCTAACCTGTTGCCT (site AGTCTCCCTAG)” to “AGAGAACCTTGGGTTCTAACCTGTTGCCT (site AGAGAACCTAG)”, the “recombinant barcode read abundance (log10)” value rises from 0.213 to 2.33.

“AGAGAACCTTGGGTTCTAACCTGTTGCCT (site CGAGAACCTAG)” and “AGAGAACCTTGGGTTCTAACCTGTTGCCT (site GGAGAACCTAG)” are within 0.2 log units of each other in “recombinant barcode read abundance (log10)” value: 0.415 for the first, 0.219 for the second.

“AGAGAACCTTGGGTTCTAACCTGTTGCCT (site TGAGAACCTAG)” and “AGAGAATCTTGGGTTCTAACCTGTTGCCT (site AGAGAATCTAG)” are within 0.2 log units of each other in “recombinant barcode read abundance (log10)” value: 1.14 for the first, 1.28 for the second.

“AGAGAATCTTGGGTTCTAACCTGTTGCCT (site AGCGAATCTAG)” and “AGAGAATCTTGGGTTCTAACCTGTTGCCT (site AGGGAATCTAG)” are within 0.2 log units of each other in “recombinant barcode read abundance (log10)” value: 0.165 for the first, 0.13 for the second.

Going from “AGAGAATCTTGGGTTCTAACCTGTTGCCT (site AGTGAATCTAG)” to “AGAGATGCTTGGGTTCTAACCTGTTGCAG (site AGAGATGCTCT)”, the “recombinant barcode read abundance (log10)” value rises from 0.196 to 1.8.

Going from “AGAGATGCTTGGGTTCTAACCTGTTGCAG (site AGAGGAGCTCT)” to “AGAGCCACTTGGGTTCTAACCTGTTGCTA (site AGAGCCACTTA)”, the “recombinant barcode read abundance (log10)” value rises from 0.289 to 2.09.

First: AGAGCCACTTGGGTTCTAACCTGTTGCTA (site GCCATTCCTAT)
Second: AGAGGGTCTTGGGTTCTAACCTGTTGCTT (site AGAGGGTCTAA)
The “recombinant barcode read abundance (log10)” value of the first is lower: 0.0124 for the first, 1.82 for the second.

“AGAGGGTCTTGGGTTCTAACCTGTTGCTT (site CGAGGGTCTAA)” and “AGAGGGTCTTGGGTTCTAACCTGTTGCTT (site GGAGGGTCTAA)” are within 0.2 log units of each other in “recombinant barcode read abundance (log10)” value: 0.186 for the first, 0.0269 for the second.

Compared with “AGAGGGTCTTGGGTTCTAACCTGTTGCTT (site TGAGGGTCTAA)”, “AGATCGGCTTGGGTTCTAACCTGTTGCCT (site AGATCGGCTAG)” is lower in “recombinant barcode read abundance (log10)” value: 0.606 for the first, 0.377 for the second.

Going from “AGATCGGCTTGGGTTCTAACCTGTTGCCT (site AGGTCGGCTAG)” to “AGATTGACTTGGGTTCTAACCTGTTGCCA (site AGATTCACTAG)”, the “recombinant barcode read abundance (log10)” value rises from 0.0375 to 0.328.

Compared with “AGATTGACTTGGGTTCTAACCTGTTGCCA (site AGATTGACTTG)”, “AGATTGCCTTGGGTTCTAACCTGTTGCCT (site AGATTGCCTAG)” is higher in “recombinant barcode read abundance (log10)” value: 0.193 for the first, 0.489 for the second.

Compared with “AGATTGCCTTGGGTTCTAACCTGTTGCCT (site TGATTTCCTAG)”, “AGCAGAGCTTGGGTTCTAACCTGTTGCGG (site AGCAGAGCTCA)” is higher in “recombinant barcode read abundance (log10)” value: 0 for the first, 1.12 for the second.

First: AGCAGAGCTTGGGTTCTAACCTGTTGCGG (site AGCAGAGCTCC)
Second: AGCAGAGCTTGGGTTCTAACCTGTTGCGG (site AGCAGAGCTCG)
The “recombinant barcode read abundance (log10)” value of the first is higher: 1.95 for the first, 0.0598 for the second.

First: AGCAGAGCTTGGGTTCTAACCTGTTGCGG (site AGCAGAGCTCT)
Second: AGCAGCCCTTGGGTTCTAACCTGTTGCAG (site AGCAGCCCTCT)
The “recombinant barcode read abundance (log10)” value of the first is lower: 1.1 for the first, 1.72 for the second.

“AGCAGCCCTTGGGTTCTAACCTGTTGCAG (site GTTCCAGCTAG)” and “AGCATAACTTGGGTTCTAACCTGTTGCCT (site AGCATAACTAG)” are within 0.2 log units of each other in “recombinant barcode read abundance (log10)” value: 0.0963 for the first, 0.187 for the second.

“AGCATAACTTGGGTTCTAACCTGTTGCCT (site AGGAGAACTAG)” and “AGCCACGCTTGGGTTCTAACCTGTTGCCT (site AGCCACACTAG)” are within 0.2 log units of each other in “recombinant barcode read abundance (log10)” value: 0.261 for the first, 0.124 for the second.

First: AGCCACGCTTGGGTTCTAACCTGTTGCCT (site AGCCACCCTAG)
Second: AGCCACGCTTGGGTTCTAACCTGTTGCCT (site AGCCACGCTAG)
The “recombinant barcode read abundance (log10)” value of the first is lower: 0.27 for the first, 1.11 for the second.

Compared with “AGCCACGCTTGGGTTCTAACCTGTTGCCT (site AGCCACTCTAG)”, “AGCCATCCTTGGGTTCTAACCTGTTGCAT (site AGCCATCCTAT)” is higher in “recombinant barcode read abundance (log10)” value: 0.153 for the first, 0.723 for the second.

First: AGCCATCCTTGGGTTCTAACCTGTTGCAT (site TGCCATCCTAT)
Second: AGCCCGCCTTGGGTTCTAACCTGTTGCCT (site AGCCCGCCTAG)
The “recombinant barcode read abundance (log10)” value of the first is lower: 0.0638 for the first, 0.358 for the second.

Going from “AGCCCGCCTTGGGTTCTAACCTGTTGCCT (site CGCCCGCCTAG)” to “AGCCCGCCTTGGGTTCTAACCTGTTGCCT (site GGCCCGCCTAG)”, the “recombinant barcode read abundance (log10)” value falls from 0.39 to 0.178.

“AGCCCGCCTTGGGTTCTAACCTGTTGCCT (site TGCCCGCCTAG)” and “AGCCCTTCTTGGGTTCTAACCTGTTGCTT (site AGCCCTTCTAA)” are within 0.2 log units of each other in “recombinant barcode read abundance (log10)” value: 0.157 for the first, 0.083 for the second.

Compared with “AGCCCTTCTTGGGTTCTAACCTGTTGCTT (site GTAGGGACTCG)”, “AGCCTCCCTTGGGTTCTAACCTGTTGCCA (site AGCCTCCCTTG)” is higher in “recombinant barcode read abundance (log10)” value: 0.0698 for the first, 0.663 for the second.

“AGCCTCCCTTGGGTTCTAACCTGTTGCCA (site CAGGGGTCTAT)” and “AGCGAGGCTTGGGTTCTAACCTGTTGCCT (site AGCGAAGCTAG)” are within 0.2 log units of each other in “recombinant barcode read abundance (log10)” value: 0.121 for the first, 0.0233 for the second.

“AGCGAGGCTTGGGTTCTAACCTGTTGCCT (site AGCGAGGCTAG)” and “AGCGCGCCTTGGGTTCTAACCTGTTGCTG (site AGCGCGCCTCA)” are within 0.2 log units of each other in “recombinant barcode read abundance (log10)” value: 0.188 for the first, 0.224 for the second.

“AGCGCGCCTTGGGTTCTAACCTGTTGCTG (site GAGTACACTGC)” and “AGCGCTCCTTGGGTTCTAACCTGTTGCCT (site AACGCTCCTAG)” are within 0.2 log units of each other in “recombinant barcode read abundance (log10)” value: 0.00819 for the first, 0.0472 for the second.
